The record followed here is patent publication US7875297B2, “Method for treating menorrhagia” (Ablation Products LLC, priority 2003, dated 2011).

The test deals with beef muscle tissue (fillet mignon). Briefly: Tissue necrosis with AgNO3 bearing beads placed on the surface of beef muscle tissue. The text has this: The degree of necrosis was rated as follows: slight visible pitting of the tissue surface (+); moderate pitting of tissue surface with slight blackening of the tissue (++); significant pitting with moderate blackening of the tissue (+++); severe pitting with complete blackening of the tissue ([…]+); and severe pitting with complete blackening of the tissue, spreading beyond the point of contact (+++++).

For the molecule `O=[N+]([O-])[O-].[Ag+]` [AgNO3 Crystal, silver nitrate], the “Tissue Necrosis (degree of necrosis of the tissue under each bead)” value runs as follows: (Time 5 minutes) “+ + +”; (Time 10 minutes) “+ + + +”; (Time 15 minutes) “+ + + + +”.
